In one assay the target is T1, MDR1-ATPase (Homo sapiens, UniProt P08183).
T1 construct: made in house; host or cells: Sf9 insect cells (baculovirus); isolated membranes
In words: MDR1 ATPase assay (substrate potential for MDR1). The note with it: isolated Sf9 cell membranes; for Ki: half-maximum inhibition of MDR1-ATPase stimulated by 30-40 micromolar verapamil. The class given is biochemical. The text has this: Method for Measuring Substrate Potential for MDR1 (MDR1 ATPase assay)
Recombinant baculovirus carrying the human MDR1 gene was generated and Sf9 cells infected with virus. The virus-infected cells were harvested and their membranes isolated. MDR1-ATPase activity of the isolated Sf9 cell membranes was estimated by measuring inorganic phosphate liberation as previously described (B. Sarkadi, J. Biol. Chem., 1992, 267:4854-4858). The differences between the ATPase activities measured in the absence and presence of 100 micromolar vanadate were determined as activity specific to MDR1. MDR modulator concentrations causing half-maximum activation (Ka) or half-maximum inhibition of the MDR1-ATPase stimulated by 30-40 micromolar verapamil (Ki) were determined.

In the next assay the test system is NIH-MDR1-G185 cells. In words: Fluorescent substrate accumulation assay (BODIPY-FL Taxol). It counts as cell-based. Particulars: BODIPY-FL Taxol 500 nM, modulator 10 micromolar, 40 min at 37° C.; fluorescence with modulator / without modulator. The method, then:
Fluorescent Substrate Accumulation Assay
NIH-MDR1-G185 cells (obtained from M. Gottesman, NIH) were harvested and resuspended in RPMI-1640 containing L-glutamine, 10% Cosmic Calf Serum and penicillin-streptomycin. Cell suspension aliquots of 175 microliters (1×10^5 cells) were added to individual wells of a 96 well microtiter plate and preincubated for 15 min at 37° C. with 20 microliters MDR modulator diluted in cell culture media to give a final concentration of 10 micromolar. Control wells received no modulating agent. BODIPY-FL Taxol (Molecular Probes, Eugene, Oreg.) was added to each well in 10 microliter aliquots to give a final concentration of 500 nM and cells were incubated for 40 min at 37° C. Cells were centrifuged at 100×g for 5 min at 4° C. and the cell pellet washed with 200 microliters cold PBS to remove fluorescent medium from wells. Cells were centrifuged once more, media removed, and cells resuspended in 200 microliters cold PBS. Fluorescence accumulation was measured in a fluorescence plate reader fitted with an excitation filter of 485 nm and an emission filter of 538 nm. BODIPY-FL taxol accumulation in the cells was calculated as follows: Accumulation Index=(fluorescence in NIH-MDR1-G185 cells in the presence of modulator)/(fluorescence in NIH-MDR1-G185 cells in absence of modulator)

Where [1] appears, read: concentration causing half-maximum activation of MDR1-ATPase.

T1 sequence (P08183 whole entry): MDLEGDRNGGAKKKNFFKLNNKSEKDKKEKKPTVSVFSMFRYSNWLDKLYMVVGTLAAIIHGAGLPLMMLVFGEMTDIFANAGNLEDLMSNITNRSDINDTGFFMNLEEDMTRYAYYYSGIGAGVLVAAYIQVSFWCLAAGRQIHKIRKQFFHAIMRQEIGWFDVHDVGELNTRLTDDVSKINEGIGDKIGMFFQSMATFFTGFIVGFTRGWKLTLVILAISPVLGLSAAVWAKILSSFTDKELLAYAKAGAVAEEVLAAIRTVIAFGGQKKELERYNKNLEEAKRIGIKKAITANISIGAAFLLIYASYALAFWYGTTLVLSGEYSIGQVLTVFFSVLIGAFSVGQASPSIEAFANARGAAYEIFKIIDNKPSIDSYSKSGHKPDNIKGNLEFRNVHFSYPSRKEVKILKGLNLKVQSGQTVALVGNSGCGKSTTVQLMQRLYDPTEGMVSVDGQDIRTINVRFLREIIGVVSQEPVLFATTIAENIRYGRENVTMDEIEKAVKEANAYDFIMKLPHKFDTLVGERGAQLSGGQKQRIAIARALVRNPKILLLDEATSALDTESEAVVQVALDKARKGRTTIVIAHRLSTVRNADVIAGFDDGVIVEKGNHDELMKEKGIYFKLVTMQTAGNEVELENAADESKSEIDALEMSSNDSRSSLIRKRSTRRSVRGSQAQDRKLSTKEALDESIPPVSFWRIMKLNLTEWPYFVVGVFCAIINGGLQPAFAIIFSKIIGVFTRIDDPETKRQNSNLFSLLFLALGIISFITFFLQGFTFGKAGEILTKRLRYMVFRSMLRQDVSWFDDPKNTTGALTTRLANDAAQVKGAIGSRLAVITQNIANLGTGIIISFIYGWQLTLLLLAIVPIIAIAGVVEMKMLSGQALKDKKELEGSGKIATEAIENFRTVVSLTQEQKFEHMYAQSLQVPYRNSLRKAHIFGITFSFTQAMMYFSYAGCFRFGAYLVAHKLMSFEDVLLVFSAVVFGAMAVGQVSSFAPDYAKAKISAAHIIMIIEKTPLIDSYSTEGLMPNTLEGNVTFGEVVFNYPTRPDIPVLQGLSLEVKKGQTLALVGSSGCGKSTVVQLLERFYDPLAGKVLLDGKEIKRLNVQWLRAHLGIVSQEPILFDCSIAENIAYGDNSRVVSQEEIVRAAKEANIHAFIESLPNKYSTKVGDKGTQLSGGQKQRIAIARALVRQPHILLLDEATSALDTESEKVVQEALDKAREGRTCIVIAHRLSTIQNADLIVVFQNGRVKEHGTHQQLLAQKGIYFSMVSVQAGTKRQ

Consider `O=C(NCCCCc1ccccc1)[C@H]1CN(C[C@@H](O)COc2cccc3ncccc23)CC[C@H]1C(=O)NCCCCc1ccccc1` (stereo in doubt) [Example 11, cis-(R)-1-[2-hydroxy-3-(quinolin-5-yloxy)-propyl]-piperidine-3,4-dicarboxylic acid bis-[(4-phenyl-butyl)-amide]], for which, on MDR1-ATPase (setting [1]), the “Substrate Potential Ka(MDR1-ATPase)” value is “no activation”. On MDR1-ATPase, the Ki (usually a dissociation constant, usually derived from enzyme kinetics or from competition with a known ligand) came out at 20 nM.

For the compound `O=C(NC1CCN(C[C@H](O)COc2cccc3ncccc23)CC1)C(CCCc1ccccc1)CCCc1ccccc1` (stereo in doubt) [Example 25, 5-phenyl-2-(3-phenyl-propyl)-pentanoic acid {1-[2-hydroxy-3-(quinolin-5-yloxy)-propyl]-piperidin-4-yl}-amide], on MDR1-ATPase (concentration causing half-maximum activation of MDR1-ATPase, read-out: Substrate Potential Ka(MDR1-ATPase)), the EC50 turned out to be 5 nM. On MDR1-ATPase, this compound had a Ki of 10 nM.

Take `O=C(NC(CCCc1ccccc1)CCCc1ccccc1)C1CCN(C[C@@H](O)COc2cccc3ncccc23)CC1` [Example 5, (R)-1-[2-hydroxy-3-(quinolin-5-yloxy)-propyl]-piperidine-4-carboxylic acid [4-phenyl-1-(3-phenyl-propyl)-butyl]-amide]: the “Substrate Potential Ka(MDR1-ATPase)” value on MDR1-ATPase (setting [1]) is reported as “no activation”. For the same compound, the affinity on MDR1-ATPase, expressed as Ki, was 300 nM.

Turning to `O=C(NC(CCCc1ccccc1)CCCc1ccccc1)C1CCCN(C[C@@H](O)COc2cccc3ncccc23)C1` (stereo partly shown) [Example 14], on MDR1-ATPase (setting [1]), the “Substrate Potential Ka(MDR1-ATPase)” value is reported as “no activation”. The same compound returned a Ki on MDR1-ATPase of 300 nM.

Regarding `COc1cc(OC[C@H](O)CN2CCCC(C(=O)NC(CCCc3ccccc3)CCCc3ccccc3)C2)cc(OC)c1OC` (stereo partly shown) [Example 15], the “Substrate Potential Ka(MDR1-ATPase)” value at MDR1-ATPase (setting [1]) is recorded as “weak activation”. Further, the Ki on MDR1-ATPase is greater than 50000 nM.

Regarding `COc1cc(C(=O)C(=O)N2CCCC(C(=O)NC(CCCc3ccccc3)CCCc3ccccc3)C2)cc(OC)c1OC` (stereo not shown) [Example 26, 1-(3,4,5-trimethoxyglyoxyl)-piperidine-3-carboxylic acid [4-phenyl-1-(3-phenyl-propyl)-butyl]-amide], the “Substrate Potential Ka(MDR1-ATPase)” value at MDR1-ATPase (setting [1]) is given as “no activation”. Besides, the Ki at MDR1-ATPase is 500 nM.

On to `O=C(C1CCN(C[C@@H](O)COc2cccc3ncccc23)CC1)N(Cc1ccccc1)Cc1ccccc1` [Example 36, (R)-1-[2-hydroxy-3-(quinolin-5-yloxy)-propyl]-piperidine-4-carboxylic acid dibenzyl amide], for which the “Substrate Potential Ka(MDR1-ATPase)” value on MDR1-ATPase (setting [1]) is “no activation”. On MDR1-ATPase, this compound yielded a Ki of 1000 nM.

With `CC1(C(=O)NC(CCCc2ccccc2)CCCc2ccccc2)CCN(C[C@@H](O)COc2cccc3ncccc23)CC1` [Example 50, (R)-1-[2-hydroxy-3-(quinolin-5-yloxy)-propyl]-methylpiperidine-4-carboxylic acid [4-phenyl-1-(3-phenyl-propyl)-butyl]-amide], in the assay on NIH-MDR1-G185 cells, the “Accumulation Index” value is recorded as 10.

“(R)-1-[2-hydroxy-3-(quinolin-5-yloxy)-propyl]-piperidine-4-carboxylic acid [4-(3-pyridyl-1-(3-pyridyl-propyl)-butyl]-amide [Example 53]”: the “Accumulation Index” value in the assay on NIH-MDR1-G185 cells came out at 8.

Values taken from patent publication US7476680B2, “Substituted heterocyclic compounds for treating multidrug resistance” (H. Lee Moffitt Cancer Center & Research Institute, Inc., priority 2000, dated 2009).
